# Molecular target: GLP-1 Receptor (Homo sapiens, UniProt P43220)
# Test: GLP-1R agonist cAMP stimulation assay
# Type: cell-based
# Conditions: HEK293/GLP1R/CRE-LUC cells, cAMP dynamic 2 Kit (Cisbio), 30 min incubation at 37° C.; read-out: EC50
# Experimental: Activation of GLP-1 receptor is known to stimulate cyclic AMP (cAMP) production in cells which indicates primary coupling to the Gαs subunit of the G protein heterotrimeric complex.
# To optimize functional activity directed toward Gαs coupling, a HEK293/CRE-Luc cell line developed by HDB stably expressing the GLP-1 Receptor was used. 200× concentration of compound working solutions were prepared (Agilent Technologies Bravo) with ½ log serial dilution in 384-well Echo LDV plate (Labcyte, Cat #LP-0200). 50 nL/well 200× concentration of compound working solutions were moved to 384-well white low volume plate (Greiner, Cat #784075) using Labcyte ECHO550. 1×10^5 cells/mL HEK293/GLP1R/CRE-LUC(HD Biosciences) cell suspensions prepared with assay buffer[DPBS containing 0.5 mM IBMX(Sigma, Cat #15879) and 0.1% BSA (GENVIEW, Cat #FA016-100 g)], 10 uL cell suspensions were added to each well of previous generated assay plate which already contains 50 nl compound at 200×concentration using ThermoFisher Multidrop Combi (1000 cells/well). Seal the plate and incubate at 37° C. with 5% CO2 for 30 min.
# After incubation the cAMP assay signal was generated using cAMP dynamic 2 Kit (Cisbio). 5 μL cAMP-d2 working solution was added to each well, followed with 5 μL Anti-cAMP antibody-cryptate working solution added to each well using ThermoFisher Multidrop Combi. Incubate at room temperature for 1 hour protected from light. Read the fluorescence at 665 and 615 nm with Reader PerkinElmer EnVision.
# % Activity=100%×(mean RLU of test sample−mean RLU of vehicle control)/(mean RLU of MAX control−mean RLU of vehicle control))
# Sequence of GLP-1 Receptor (P43220 24-463, species assumed): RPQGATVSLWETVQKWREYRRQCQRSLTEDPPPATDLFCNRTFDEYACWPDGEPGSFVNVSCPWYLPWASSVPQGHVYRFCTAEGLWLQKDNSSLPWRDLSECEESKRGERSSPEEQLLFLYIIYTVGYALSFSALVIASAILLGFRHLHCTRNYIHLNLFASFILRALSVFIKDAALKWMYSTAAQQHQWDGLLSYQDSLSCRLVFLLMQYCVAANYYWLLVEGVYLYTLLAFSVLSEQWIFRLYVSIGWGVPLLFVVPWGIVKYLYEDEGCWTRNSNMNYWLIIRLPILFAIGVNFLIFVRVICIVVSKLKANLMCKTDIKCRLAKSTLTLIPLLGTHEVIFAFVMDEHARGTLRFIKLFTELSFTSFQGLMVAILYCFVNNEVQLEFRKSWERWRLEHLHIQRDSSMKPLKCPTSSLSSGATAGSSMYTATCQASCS
row,EC50 [nM],SMILES
1,13,"FC1(F)CCN(Cc2cccc(OC3CCN(Cc4nc5cc(-c6nnc(C(F)(F)F)[nH]6)ncc5n4C[C@@H]4CCO4)CC3)n2)CC1 [Compound 184a, 2-[(4,4-difluoropiperidin-1-yl)methyl]-6-({1-[(3-{[(2S)-oxetan-2-yl]methyl}-6-[5-(trifluoromethyl)-4H-1,2,4-triazol-3-yl]-3H-imidazo[4,5-c]pyridin-2-yl)methyl]piperidin-4-yl}oxy)pyridine]"
2,0.081,"Fc1cc(Cl)ccc1Cc1ncc(F)c(OC2CCN(Cc3nc4cc(-c5nnc(C(F)(F)F)[nH]5)ncc4n3C[C@@H]3CCO3)CC2)n1 [Compound 168a, 2-[(4-chloro-2-fluorophenyl)methyl]-5-fluoro-4-({1-[(3-{[(2S)-oxetan-2-yl]methyl}-6-[5-(trifluoromethyl)-4H-1,2,4-triazol-3-yl]-3H-imidazo[4,5-c]pyridin-2-yl)methyl]piperidin-4-yl}oxy)pyrimidine]"
3,0.2,"Clc1ccc(Cc2nccc(OC3CCN(Cc4nc5cc(-c6nnn[nH]6)ccc5n4C[C@@H]4CCO4)CC3)n2)cc1 [Compound 107a, 2-{[4-({2-[(4-chlorophenyl)methyl]pyrimidin-4-yl}oxy)piperidin-1-yl]methyl}-1-{[(2S)-oxetan-2-yl]methyl}-5-(1H-1,2,3,4-tetrazol-5-yl)-1H-1,3-benzodiazole]"
4,4,"COC1(Cn2c(CN3CCC(Oc4cccc(Cc5ccc(Cl)cc5F)n4)CC3)nc3cc(-c4nnc(C(F)(F)F)[nH]4)ncc32)CC1 [Compound 192, 2-[(4-chloro-2-fluorophenyl)methyl]-6-{[1-({3-[(1-methoxycyclopropyl)methyl]-6-[5-(trifluoromethyl)-4H-1,2,4-triazol-3-yl]-3H-imidazo[4,5-c]pyridin-2-yl}methyl)piperidin-4-yl]oxy}pyridine]"
5,5.8,"Cc1ccncc1C(=O)Nc1ccc2c(c1)nc(CN1CCC(Oc3ccnc(Cc4ccc(Cl)cc4)n3)CC1)n2C[C@@H]1CCO1 [Compound 105a, N-(2-{[4-({2-[(4-chlorophenyl)methyl]pyrimidin-4-yl}oxy)piperidin-1-yl]methyl}-1-{[(2S)-oxetan-2-yl]methyl}-1H-1,3-benzodiazol-5-yl)-4-methylpyridine-3-carboxamide]"
6,2.7,"COCCOc1ccc(C(=O)Nc2ccc3c(c2)nc(CN2CCC(Oc4ccnc(Cc5ccc(Cl)cc5F)n4)CC2)n3C[C@@H]2CCO2)cn1 [Compound 115a, N-(2-{[4-({2-[(4-chloro-2-fluorophenyl)methyl]pyrimidin-4-yl}oxy)piperidin-1-yl]methyl}-1-{[(2S)-oxetan-2-yl]methyl}-1H-1,3-benzodiazol-5-yl)-6-(2-methoxyethoxy)pyridine-3-carboxamide]"
7,0.5,"Fc1cnc(Cc2ccc(Cl)cc2)nc1OC1CCN(Cc2nc3cc(-c4nnc(C(F)(F)F)[nH]4)cnc3n2C[C@@H]2CCO2)CC1 [Compound 121a, 2-[(4-chlorophenyl)methyl]-5-fluoro-4-({1-[(3-{[(2S)-oxetan-2-yl]methyl}-6-[5-(trifluoromethyl)-4H-1,2,4-triazol-3-yl]-3H-imidazo[4,5-b]pyridin-2-yl)methyl]piperidin-4-yl}oxy)pyrimidine]"
8,11,"Fc1cnc(Cc2ccc(Cl)cc2)nc1OC1CCN(Cc2nc3cc(-c4nnc(C(F)(F)F)[nH]4)ccc3n2C[C@H]2CCOC2)CC1 [Compound 147a, 2-{[4-({2-[(4-chlorophenyl)methyl]-5-fluoropyrimidin-4-yl}oxy)piperidin-1-yl]methyl}-1-{[(3R)-oxolan-3-yl]methyl}-5-[5-(trifluoromethyl)-4H-1,2,4-triazol-3-yl]-1H-1,3-benzodiazole]"
9,0.14,"Fc1cc(Cl)ccc1Cc1cccc(OC2CCN(Cc3nc4cc(-c5nnc(C(F)(F)F)[nH]5)ccc4n3C[C@@H]3CCO3)CC2)n1 [Compound 137a, 2-{[4-({6-[(4-chloro-2-fluorophenyl)methyl]pyridin-2-yl}oxy)piperidin-1-yl]methyl}-1-{[(2S)-oxetan-2-yl]methyl}-5-[5-(trifluoromethyl)-4H-1,2,4-triazol-3-yl]-1H-1,3-benzodiazole]"
